Results on 5 molecules are retold here after US20200298233A1, “MICROFLUIDIC PAPER CHIP FOR DETECTING MICRO-ORGANISM, METHOD FOR PREPARING THE SAME AND METHOD FOR DETECTING MICRO-ORGANISM USING THE SAME” (BIOMAX CO., LTD., priority 2017, published 2020).

One test deals with Esherichia coli O157. The test can be described thus: Bacterial lysis efficacy by measuring optical density (OD). It counts as cell-based, Escherichia coli O157.
Test [1] deals with Listeria monocytogenes. The test is described as above. Format: cell-based.
Test [2] relates to Staphylococcus aureus. The description is as above. It counts as cell-based.
For test [3], the system named is 5 food risk microorganisms. The test can be described thus: Bacterial lysis efficacy by optical density, overall statements. Format: cell-based.
Another test relates to Salmonella spp. The test can be described thus: Bacterial lysis efficacy by measuring optical density (OD).
In test [4] the test system is Vibrio vulnificus. Described as above.
Test [5] has as its system Listeria monocytogenes. The test can be described thus: Coloring reaction test of chromogenic reagents, 96 well plate. Format: biochemical. The settings on record: chromogenic reagent terminal concentration 10 mM, 30 minutes at 37° C.
The next test has as its system Escherichia coli. The settings on record: chromogenic reagent terminal concentration 10 mM, 30 minutes at 37° C.
Test [6] relates to Vibrio vulnificus. The test can be described thus: Coloring reaction test of chromogenic reagents, 96 well plate. Format: biochemical. As to conditions: chromogenic reagent terminal concentration 10 mM, 30 minutes at 37° C.
The test system of test [7] is Staphylococcus aureus. The test is described as above. It counts as biochemical. The settings on record: chromogenic reagent terminal concentration 10 mM, 30 minutes at 37° C.
A further test deals with Escherichia coli O157. The settings on record: chromogenic reagent terminal concentration 10 mM, 30 minutes at 37° C.

Values joined by “and” are separate entries in the source; they are usually repeats but may differ in a detail not shown here. Identical values can stand only once.

`CCCCCCCCCCCCCC[N+](C)(C)CCCS(=O)(=O)[O-]` [SB3-14]: the Optical density in the test with Esherichia coli O157 (Table 7, additives to 1% SB3-14, initial O.D = 1.0911) is 0.1112 and 0.1137 and 0.1126; in the test with Esherichia coli O157 (Table 8, C7BZO concentrations added to 1% SB3-14, initial O.D = 1.0829), 0.1264 and 0.1254 and 0.1241; with Esherichia coli O157 (detergent 0.1%, initial O.D = 0.8139), 0.4641 and 0.4483 and 0.4351; in the test with Esherichia coli O157 (detergent 0.5%, initial O.D = 0.8139), 0.2262 and 0.2254 and 0.2230; in the test on Esherichia coli O157 (detergent 1%, initial O.D = 0.8139), 0.0270 and 0.0238 and 0.0244; with Esherichia coli O157 (detergent 2%, initial O.D = 0.8139), 0.4447 and 0.4452 and 0.4459. Further, the Optical density with Esherichia coli O157 (detergent 3%, initial O.D = 0.8139) is 0.6228 and 0.6275 and 0.6225; in the test on Esherichia coli O157 (detergent 5%, initial O.D = 0.8139), 0.6731 and 0.6746 and 0.6733; with Listeria monocytogenes [1] (Table 7, additives to 1% SB3-14, initial O.D = 1.2010) it was 0.6579 and 0.6484 and 0.6514; in the test on Listeria monocytogenes [1] (Table 8, C7BZO concentrations added to 1% SB3-14, initial O.D = 1.1086), 0.7673 and 0.7609 and 0.7595; in the test on Listeria monocytogenes [1] (detergent 0.1%, initial O.D = 0.8336) it was 0.9540 and 0.9653 and 0.9757; in the test with Listeria monocytogenes [1] (detergent 0.5%, initial O.D = 0.8336), 0.8154 and 0.8244 and 0.8145. Further, the Optical density in the test on Listeria monocytogenes [1] (detergent 1%, initial O.D = 0.8336) is 0.5993 and 0.5050 and 0.5950; in the test on Listeria monocytogenes [1] (detergent 2%, initial O.D = 0.8336) it was 0.9852 and 0.9975 and 0.9807; with Listeria monocytogenes [1] (detergent 3%, initial O.D = 0.8336), 0.7006 and 0.6813 and 0.6884; in the test with Listeria monocytogenes [1] (detergent 5%, initial O.D = 0.8336), 0.7960 and 0.7828 and 0.7815; with Staphylococcus aureus [2] (Table 7, additives to 1% SB3-14, initial O.D = 1.2274), 0.8154 and 0.8152 and 0.8153; with Staphylococcus aureus [2] (Table 8, C7BZO concentrations added to 1% SB3-14, initial O.D = 1.1374), 0.8664 and 0.8654 and 0.8652. Also, the Optical density with Staphylococcus aureus [2] (detergent 0.1%, initial O.D = 1.1877) is 0.9052 and 0.9069 and 0.9087; in the test with Staphylococcus aureus [2] (detergent 0.5%, initial O.D = 1.1877), 1.1084 and 1.1070 and 1.1092; in the test on Staphylococcus aureus [2] (detergent 1%, initial O.D = 1.1877) it was 0.5341 and 0.5322; with Staphylococcus aureus [2] (detergent 2%, initial O.D = 1.1877), 0.9473 and 0.9470 and 0.9461; in the test on Staphylococcus aureus [2] (detergent 3%, initial O.D = 1.1877), 1.0432 and 1.0429 and 1.0502; in the test on Staphylococcus aureus [2] (detergent 5%, initial O.D = 1.1877), 0.8999 and 0.8987 and 0.8865. In addition, the Optical density with Salmonella spp. (Table 7, additives to 1% SB3-14, initial O.D = 1.0894) is 0.3597 and 0.3519 and 0.3447; with Salmonella spp. (Table 8, C7BZO concentrations added to 1% SB3-14, initial O.D = 1.3421), 0.3640 and 0.3631 and 0.3627; with Salmonella spp. (detergent 0.1%, initial O.D = 1.4448), 0.5393 and 0.5423 and 0.5520; in the test on Salmonella spp. (detergent 0.5%, initial O.D = 1.4448), 0.5807 and 0.5788 and 0.5796; with Salmonella spp. (detergent 1%, initial O.D = 1.4448) it was 0.4105 and 0.4095; in the test with Salmonella spp. (detergent 2%, initial O.D = 1.4448), 0.5727 and 0.5754 and 0.5776. In addition, the Optical density in the test on Salmonella spp. (detergent 3%, initial O.D = 1.4448) was 0.5196 and 0.5221; with Salmonella spp. (detergent 5%, initial O.D = 1.4448), 0.4419 and 0.4454 and 0.4443; in the test with Vibrio vulnificus [4] (Table 7, additives to 1% SB3-14, initial O.D = 0.5670) it was 0.0800 and 0.0798 and 0.0787; in the test on Vibrio vulnificus [4] (Table 8, C7BZO concentrations added to 1% SB3-14, initial O.D = 1.0272), 0.2733 and 0.2706 and 0.2737; in the test on Vibrio vulnificus [4] (detergent 0.1%, initial O.D = 0.6143, listed as SB-14) it was 0.1924 and 0.1953 and 0.1984; in the test with Vibrio vulnificus [4] (detergent 0.5%, initial O.D = 0.6143, listed as SB-14) it was 0.0679 and 0.0739 and 0.0695. The Optical density in the test on Vibrio vulnificus [4] (detergent 1%, initial O.D = 0.6143, listed as SB-14) was 0.0601 and 0.0595 and 0.0588; in the test on Vibrio vulnificus [4] (detergent 2%, initial O.D = 0.6143, listed as SB-14), 0.0445 and 0.0393 and 0.0447; in the test with Vibrio vulnificus [4] (detergent 3%, initial O.D = 0.6143, listed as SB-14), 0.0453 and 0.0547 and 0.0528; in the test on Vibrio vulnificus [4] (detergent 5%, initial O.D = 0.6143, listed as SB-14), 0.0310 and 0.0329 and 0.0320. In addition, in [3] (detergents at 1%, tables 3 and 4), the bacterial lysis efficacy entry is “best bacterial lysis efficacy”.
For “Aldol ® 518 myo-inositol-1-phosphate [Aldol-myo-inositol-1-phosphate]”, the coloring reaction result with Listeria monocytogenes [5] is on record as “unique coloring reaction”.
In the case of `CCCCCCCc1ccc(C(O)CC[N+](C)(C)CCCS(=O)(=O)[O-])cc1` (centres unmarked) [C7BzO, 3-[[3-(4-heptylphenyl)-3-hydroxypropyl]-dimethylazaniumyl]propane-1-sulfonate], the “lysis efficacy on addition to 1% (v/v) SB3-14” value in test [3] (table 7) is reported as “increased the most”.
In the case of `O.O.O.O=C([O-])[C@H]1O[C@@H](Oc2c[nH]c3ccc(Br)c(Cl)c23)[C@H](O)[C@@H](O)[C@@H]1O.[Na+]` [X-beta-glucuronide, 5-Bromo-4-chloro-3-indoxyl-beta-D-glucuronic acid Sodium salt trihydrate], the coloring reaction result with Escherichia coli is reported as “unique coloring reaction”.
“5-Bromo-6-chloro-3-indoxyl-beta-D-galactopyranoside [Magenta-beta-galactopyranoside]”: the coloring reaction result in the test with Vibrio vulnificus [6], with Staphylococcus aureus [7] and in the test on Escherichia coli O157 was “unique coloring reaction” each time.
